Reference: ChEMBL document CHEMBL4476877, “Treatment of COPD, gastro-esophageal reflux disease (GERD), food allergies and other gastrointestinal conditions and disorders ameliorated by proper histamine management using a combination of histidine decarboxylase inhibitors, LRA drugs, anti-H1 and/or anti-H2 drugs” (2012)
Blank lines part the entries; values can stand above or below the compound they belong to.

What was measured:
[1] = biological target: T1, Histidine decarboxylase (Homo sapiens) (UniProt P19113); experiment: Inhibition of recombinant human HDC (1 to 512 residues) expressed in Escherichia coli BL21 (DE3) pLysS assessed as reduction in [14C]CO2 production from L-[U-14C]histidine at 10 uM relative to untreated control
T1 sequence (whole entry): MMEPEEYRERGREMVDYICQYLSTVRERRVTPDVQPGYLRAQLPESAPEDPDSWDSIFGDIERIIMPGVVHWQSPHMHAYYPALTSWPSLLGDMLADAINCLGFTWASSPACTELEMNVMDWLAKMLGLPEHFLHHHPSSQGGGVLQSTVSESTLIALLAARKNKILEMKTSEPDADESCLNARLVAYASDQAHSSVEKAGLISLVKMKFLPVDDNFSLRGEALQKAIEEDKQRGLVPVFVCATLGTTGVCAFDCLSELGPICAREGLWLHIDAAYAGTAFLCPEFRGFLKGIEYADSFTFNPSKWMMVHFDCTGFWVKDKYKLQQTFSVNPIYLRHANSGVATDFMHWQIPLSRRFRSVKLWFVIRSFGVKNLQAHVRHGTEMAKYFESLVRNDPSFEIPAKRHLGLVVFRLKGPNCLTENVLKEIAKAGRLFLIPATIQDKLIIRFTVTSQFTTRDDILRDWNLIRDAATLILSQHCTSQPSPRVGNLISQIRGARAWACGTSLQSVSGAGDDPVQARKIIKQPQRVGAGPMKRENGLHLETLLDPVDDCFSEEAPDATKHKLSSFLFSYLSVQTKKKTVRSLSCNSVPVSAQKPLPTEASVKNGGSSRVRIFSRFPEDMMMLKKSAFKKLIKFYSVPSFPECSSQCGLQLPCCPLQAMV

Homo sapiens [2] = species: Homo sapiens; experiment: Improvement in disease symptoms in patient with COPD assessed as TEV level at 200 mg/day co-treated with 10 mg/day Loratadine and measured after 6 months by spirometry (reference value: 1.2 L/secs); format: functional
Homo sapiens [3] = species: Homo sapiens; experiment: Improvement in disease symptoms in patient with COPD assessed as TEV level at 200 mg/day co-treated with 10 mg/day Loratadine and measured after 6 months by spirometry (reference value: 1.5 L/secs); format: functional
Homo sapiens [4] = species: Homo sapiens; experiment: Improvement in disease symptoms in patient with COPD assessed as TEV level at 200 mg/day co-treated with 10 mg/day Loratadine and measured after 6 weeks by spirometry (reference value: 1.2 L/secs); format: functional
Homo sapiens [5] = species: Homo sapiens; experiment: Improvement in disease symptoms in patient with COPD assessed as TEV level at 200 mg/day co-treated with 10 mg/day Loratadine and measured after 6 months by spirometry (reference value: 1.8 L/secs); format: functional
Homo sapiens [6] = species: Homo sapiens; experiment: Improvement in disease symptoms in patient with COPD assessed as TEV level at 200 mg/day co-treated with 10 mg/day Loratadine and measured after 12 months by spirometry (reference value: 1.5 L/secs); format: functional
Homo sapiens [7] = species: Homo sapiens; experiment: Improvement in disease symptoms in patient with COPD assessed as TEV level at 200 mg/day co-treated with 10 mg/day Loratadine and measured after 6 weeks by spirometry (reference value: 1.4 L/secs); format: functional
Homo sapiens [8] = species: Homo sapiens; experiment: Improvement in disease symptoms in patient with COPD assessed as TEV level at 200 mg/day co-treated with 10 mg/day Loratadine and measured after 10 months by spirometry (reference value: 0.4 L/secs); format: functional
Homo sapiens [9] = experiment: Improvement in disease symptoms in GERD patient assessed as improvement in disease symptoms at 200 mg dosed daily co-treated with 10 mg anti-H1 drug loratadine dosed daily and 150 mg anti-H2 drug Ranitidine dosed daily; format: functional
Homo sapiens [10] = species: Homo sapiens; experiment: Improvement in disease symptoms in patient with COPD assessed as TEV level at 200 mg/day co-treated with 10 mg/day Loratadine and measured after 6 months by spirometry (reference value: 1.4 L/secs); format: functional
Homo sapiens [11] = species: Homo sapiens; experiment: Improvement in disease symptoms in patient with COPD assessed as TEV level at 200 mg/day co-treated with 10 mg/day Loratadine and measured after 6 weeks by spirometry (reference value: 1.5 L/secs); format: functional
Homo sapiens [12] = species: Homo sapiens; experiment: Improvement in disease symptoms in patient with COPD assessed as TEV level at 200 mg/day co-treated with 10 mg/day Loratadine and measured after 6 weeks by spirometry (reference value: 1.8 L/secs); format: functional
Homo sapiens [13] = species: Homo sapiens; experiment: Improvement in disease symptoms in patient with COPD assessed as TEV level at 200 mg/day co-treated with 10 mg/day Loratadine and measured after 12 months by spirometry (reference value: 1.8 L/secs); format: functional
Homo sapiens [14] = species: Homo sapiens; experiment: Improvement in disease symptoms in patient with COPD assessed as increase in TEV level at 200 mg/day co-treated with 10 mg/day Loratadine and measured after 8 months by spirometry relative to untreated control; format: functional
Homo sapiens [15] = experiment: Improvement in disease symptoms in GERD patient assessed as improvement in disease symptoms at 200 mg dosed daily co-treated with 10 mg anti-H1 drug loratadine dosed daily relative to control; format: functional
Homo sapiens [16] = species: Homo sapiens; experiment: Improvement in disease symptoms in patient with COPD assessed as TEV level at 200 mg/day co-treated with 10 mg/day Loratadine and measured after 8 months by spirometry (reference value: 1.4 L/secs); format: functional
Homo sapiens [17] = species: Homo sapiens; experiment: Improvement in disease symptoms in patient with COPD assessed as TEV level at 200 mg/day co-treated with 10 mg/day Loratadine and measured after 6 weeks by spirometry relative to control; format: functional
Homo sapiens [18] = species: Homo sapiens; experiment: Improvement in disease symptoms in patient with COPD assessed as TEV level at 200 mg/day co-treated with 10 mg/day Loratadine and measured after 6 weeks by spirometry (reference value: 0.4 L/secs); format: functional
Homo sapiens [19] = species: Homo sapiens; experiment: Improvement in disease symptoms in patient with COPD assessed as TEV level at 200 mg/day co-treated with 10 mg/day Loratadine and measured after 6 months by spirometry (reference value: 0.4 L/secs); format: functional
Homo sapiens [20] = species: Homo sapiens; experiment: Improvement in disease symptoms in patient with COPD assessed as increase in TEV level at 200 mg/day co-treated with 10 mg/day Loratadine and measured after 10 months by spirometry relative to untreated control; format: functional

inhibition [1]: 17.5%
SMILES: CCOc1c(N)c2c(c(OCC)c1OCC)C(C1c3c(cc4c(c3OC)OCO4)CCN1C)OC2=O (racemic)

SMILES: CCOc1c(N)c2c(c(OCC)c1OCC)C(C1c3c(cc4c(c3OC)OCO4)CCN1C)OC2=O (stereo not given) [TRITOQUALINE]
Activity (Homo sapiens [2]): 1.9 L/s
Activity (Homo sapiens [3]): 1.9 L/s
Activity (Homo sapiens [4]): 1.8 L/s
Activity (Homo sapiens [5]): 2.1 L/s
Activity (Homo sapiens [6]): 2 L/s
Activity (Homo sapiens [7]): 1.7 L/s
Activity (Homo sapiens [8]): 0.9 L/s
Activity (Homo sapiens [9]): 209.5%
Activity (Homo sapiens [10]): 2.1 L/s
Activity (Homo sapiens [11]): 1.7 L/s
Activity (Homo sapiens [12]): 2.1 L/s
Activity (Homo sapiens [13]): 2.6 L/s
Activity (Homo sapiens [14]): 71.4%
Activity (Homo sapiens [15]): 82.9%
Activity (Homo sapiens [16]): 2.4 L/s
Activity (Homo sapiens [17]): 71.4%
Activity (Homo sapiens [18]): 0.6 L/s
Activity (Homo sapiens [19]): 0.8 L/s
Activity (Homo sapiens [20]): 125%
